Among the data in PubChem BioAssay AID308 (DTP/NCI, 2004) are T/C values, retold here.

The structures appear in SMILES notation. “And” between values parts separate entries of the source, which are not always exact repeats. Equal values may be shown once. Toxic doses and inconclusive results are not listed.

The test system of the test is BDF1 mice, L1210 6-MP/6-TG resistant leukemia ip, survival T/C. The test is described as follows: NCI In Vivo Anticancer Drug Screen. Data for tumor model L1210 Leukemia resistant to 6-MP and 6-Thioguanine; NSC 755, NSC 752 (intraperitoneal) in B6D2F1 (BDF1) mice. The following applies: endpoint: mean survival time, higher = longer survival. As for the experimental part: The antitumor activity of compounds was measured in mice bearing transplantable tumors. Survival or tumor size were measured and the results are expressed as the measurement made in the treated group (T) divided by the measurement made in the vehicle treated control group (C). The tumor model used in this assay is L1210 Leukemia resistant to 6-MP and 6-Thioguanine; NSC 755, NSC 752 (intraperitoneal) in B6D2F1 (BDF1) mice

[1] abbreviates: dose: 25.0 mg/kg/injection, schedule: Q01DX Z (ip), vehicle: carboxymethylcellulose (CMC).
Setting [2] is: dose: 50.0 mg/kg/injection, schedule: Q01DX Z (ip), vehicle: carboxymethylcellulose (CMC).
Where [3] appears, read: dose: 100.0 mg/kg/injection, schedule: Q01DX Z (ip), vehicle: carboxymethylcellulose (CMC).
Where [4] appears, read: dose: 0.5 mg/kg/injection, schedule: Q01DX Z (ip), vehicle: carboxymethylcellulose (CMC).
Where [5] appears, read: dose: 0.75 mg/kg/injection, schedule: Q01DX Z (ip), vehicle: carboxymethylcellulose (CMC).
Setting [6] is: dose: 1.0 mg/kg/injection, schedule: Q01DX Z (ip), vehicle: carboxymethylcellulose (CMC).
[7] abbreviates: dose: 2.5 mg/kg/injection, schedule: Q01DX Z (ip), vehicle: carboxymethylcellulose (CMC).
The mark [8] stands for this setting: dose: 20.0 mg/kg/injection, schedule: Q01DX015 (ip), vehicle: carboxymethylcellulose (CMC).
The mark [9] stands for this setting: dose: 40.0 mg/kg/injection, schedule: Q01DX015 (ip), vehicle: carboxymethylcellulose (CMC).

As for `O=C(Nc1ccc(C2=NCCN2)cc1)c1ccc(C(=O)Nc2ccc(C3=NCCN3)cc2)cc1`, the T/C (dose: 18.75 mg/kg/injection, schedule: Q01DX Z (ip), vehicle: carboxymethylcellulose (CMC)) is 154 % of control; the T/C under setting [1] is 151 % of control; the T/C (dose: 27.0 mg/kg/injection, schedule: Q02DX010 (ip), vehicle: carboxymethylcellulose (CMC)) is 312 % of control; the T/C (dose: 40.0 mg/kg/injection, schedule: Q02DX010 (ip), vehicle: carboxymethylcellulose (CMC)) is 317 % of control; the T/C under setting [2] is 219 % of control; the T/C (dose: 60.0 mg/kg/injection, schedule: Q02DX010 (ip), vehicle: carboxymethylcellulose (CMC)) was 296 % of control. Also, the T/C was 188 % of control and 232 % of control (dose: 75.0 mg/kg/injection, schedule: Q01DX Z (ip), vehicle: carboxymethylcellulose (CMC)); 280 % of control (dose: 90.0 mg/kg/injection, schedule: Q02DX010 (ip), vehicle: carboxymethylcellulose (CMC)); 288 % of control and 295 % of control under setting [3]; 312 % of control (dose: 135.0 mg/kg/injection, schedule: Q02DX010 (ip), vehicle: carboxymethylcellulose (CMC)); 300 % of control (dose: 150.0 mg/kg/injection, schedule: Q01DX Z (ip), vehicle: carboxymethylcellulose (CMC)); 186 % of control (dose: 200.0 mg/kg/injection, schedule: Q01DX Z (ip), vehicle: carboxymethylcellulose (CMC)).
With `Nc1nc(=S)c2[nH]cnc2[nH]1`, the T/C is, setting by setting: (dose: 0.37 mg/kg/injection, schedule: Q01DX Z (ip), vehicle: carboxymethylcellulose (CMC)) 123 % of control; under setting [4], 92 % of control; under setting [5], 101 % of control; under setting [6], 103 % of control; (dose: 1.25 mg/kg/injection, schedule: Q01DX Z (ip), vehicle: carboxymethylcellulose (CMC)) 104 % of control; under setting [7], 95 % of control.
Consider `C=C(C)CSc1ncnc2nc[nH]c12`, for which the T/C runs as follows: (dose: 62.0 mg/kg/injection, schedule: Q01DX015 (ip), vehicle: other) 109 % of control; (dose: 125.0 mg/kg/injection, schedule: Q01DX015 (ip), vehicle: other) 95 % of control; (dose: 250.0 mg/kg/injection, schedule: Q01DX015 (ip), vehicle: other) 100 % of control.
Take `C=CCn1cnc2c(=S)nc[nH]c21`: the T/C is 103 % of control (dose: 18.0 mg/kg/injection, schedule: Q01DX015 (ip), vehicle: other); 108 % of control (dose: 26.0 mg/kg/injection, schedule: Q01DX015 (ip), vehicle: other); 101 % of control (dose: 40.0 mg/kg/injection, schedule: Q01DX015 (ip), vehicle: other); 95 % of control (dose: 60.0 mg/kg/injection, schedule: Q01DX015 (ip), vehicle: other).
As to `[N-]=[N+]=CC(=O)NCC(=O)NN`, the T/C (dose: 62.0 mg/kg/injection, schedule: Q01DX Z (ip), vehicle: saline) was 114 % of control.
Take `S=c1nc[nH]c2nc[nH]c12`: the T/C is 99 % of control (dose: 3.5 mg/kg/injection, schedule: Q01DX Z (ip), vehicle: carboxymethylcellulose (CMC)); 93 % of control and 101 % of control (dose: 5.0 mg/kg/injection, schedule: Q01DX015 (ip), vehicle: carboxymethylcellulose (CMC)); 100 % of control and 103 % of control and 106 % of control (dose: 7.0 mg/kg/injection, schedule: Q01DX Z (ip), vehicle: carboxymethylcellulose (CMC)); 94 % of control and 97 % of control and 103 % of control (dose: 8.0 mg/kg/injection, schedule: Q01DX015 (ip), vehicle: carboxymethylcellulose (CMC)); 96 % of control (dose: 10.0 mg/kg/injection, schedule: Q01DX015 (ip), vehicle: alkali diluted with saline); 90 % of control and 95 % of control and 96 % of control (dose: 12.0 mg/kg/injection, schedule: Q01DX015 (ip), vehicle: carboxymethylcellulose (CMC)). The T/C by setting is: (dose: 12.0 mg/kg/injection, schedule: Q01DX Z (ip), vehicle: carboxymethylcellulose (CMC)) 110 % of control; (dose: 12.5 mg/kg/injection, schedule: Q01DX Z (ip), vehicle: carboxymethylcellulose (CMC)) 95 % of control; (dose: 14.0 mg/kg/injection, schedule: Q01DX Z (ip), vehicle: carboxymethylcellulose (CMC)) 96 % of control and 98 % of control and 104 % of control; (dose: 16.0 mg/kg/injection, schedule: Q01DX015 (ip), vehicle: carboxymethylcellulose (CMC)) 95 % of control; (dose: 18.0 mg/kg/injection, schedule: Q01DX015 (ip), vehicle: carboxymethylcellulose (CMC)) 93 % of control and 100 % of control; (dose: 19.0 mg/kg/injection, schedule: Q01DX Z (ip), vehicle: carboxymethylcellulose (CMC)) 123 % of control. Further, the T/C was 103 % of control (dose: 20.0 mg/kg/injection, schedule: Q01DX015 (ip), vehicle: alkali diluted with saline); 96 % of control under setting [8]; 101 % of control (dose: 20.0 mg/kg/injection, schedule: Q01DX Z (ip), vehicle: carboxymethylcellulose (CMC)); 93 % of control (dose: 24.0 mg/kg/injection, schedule: Q01DX015 (ip), vehicle: carboxymethylcellulose (CMC)); 88 % of control under setting [1]; 97 % of control and 101 % of control (dose: 26.0 mg/kg/injection, schedule: Q01DX001 (ip), vehicle: alkali diluted with saline). The T/C reads like this: (dose: 27.0 mg/kg/injection, schedule: Q01DX015 (ip), vehicle: carboxymethylcellulose (CMC)) 96 % of control and 100 % of control; (dose: 40.0 mg/kg/injection, schedule: Q01DX001 (ip), vehicle: alkali diluted with saline) 96 % of control and 98 % of control (2×); (dose: 40.0 mg/kg/injection, schedule: Q01DX001 (ip), vehicle: carboxymethylcellulose (CMC)) 102 % of control and 109 % of control; (dose: 40.0 mg/kg/injection, schedule: Q01DX015 (ip), vehicle: alkali diluted with saline) 103 % of control; under setting [9], 92 % of control and 95 % of control; (dose: 42.0 mg/kg/injection, schedule: Q01DX Z (ip), vehicle: carboxymethylcellulose (CMC)) 103 % of control. Also, the T/C was 91 % of control under setting [2]; 93 % of control and 97 % of control (dose: 56.0 mg/kg/injection, schedule: Q01DX Z (ip), vehicle: carboxymethylcellulose (CMC)); 100 % of control (dose: 59.0 mg/kg/injection, schedule: Q01DX001 (ip), vehicle: carboxymethylcellulose (CMC)); 96 % of control (2×) and 106 % of control (dose: 60.0 mg/kg/injection, schedule: Q01DX001 (ip), vehicle: alkali diluted with saline); 108 % of control (dose: 60.0 mg/kg/injection, schedule: Q01DX001 (ip), vehicle: carboxymethylcellulose (CMC)); 94 % of control (dose: 60.0 mg/kg/injection, schedule: Q01DX010 (ip), vehicle: alkali diluted with saline). Besides, the T/C was 87 % of control and 97 % of control and 103 % of control (dose: 90.0 mg/kg/injection, schedule: Q01DX001 (ip), vehicle: alkali diluted with saline); 99 % of control and 102 % of control (dose: 90.0 mg/kg/injection, schedule: Q01DX001 (ip), vehicle: carboxymethylcellulose (CMC)); 91 % of control under setting [3]; 96 % of control and 103 % of control and 105 % of control (dose: 135.0 mg/kg/injection, schedule: Q01DX001 (ip), vehicle: alkali diluted with saline); 96 % of control (dose: 150.0 mg/kg/injection, schedule: Q01DX001 (ip), vehicle: carboxymethylcellulose (CMC)); 99 % of control and 100 % of control and 102 % of control (dose: 202.0 mg/kg/injection, schedule: Q01DX001 (ip), vehicle: alkali diluted with saline). Where the note is “dose: 203.0 mg/kg/injection, schedule: Q01DX001 (ip), vehicle: carboxymethylcellulose (CMC)”, the T/C was 95 % of control.
Turning to `COc1cc2c(c3c1c(=O)c1ccccc1n3C)C=CC(C)(C)O2`, the T/C by setting is: under setting [8], 106 % of control; under setting [9], 116 % of control.
For the compound `NC(Cc1ccc(N(CCCl)CCCl)cc1)C(=O)O` (configuration not stated), the T/C is 163 % of control under setting [4]; 155 % of control under setting [5]; 188 % of control under setting [6]; 195 % of control under setting [7]; 195 % of control (dose: 3.75 mg/kg/injection, schedule: Q01DX Z (ip), vehicle: carboxymethylcellulose (CMC)); 155 % of control (dose: 5.0 mg/kg/injection, schedule: Q01DX Z (ip), vehicle: carboxymethylcellulose (CMC)). Also, the T/C (dose: 7.5 mg/kg/injection, schedule: Q01DX Z (ip), vehicle: carboxymethylcellulose (CMC)) was 119 % of control.
